How the values were obtained:
Test in all cases: relative viability (nuclei count vs DMSO), 5 days (fraction); higher = more cells survive
NCI-H1755 = tested on: NCI-H1755
Method in brief: (§1)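 After 5 days of treatment, lung cancer cells in 1536-well plates were fixed and stained in a single step (final 0.05% Triton X-100, 1% formaldehyde, 1 ug/ml Hoechst) and their nuclei counted on 4× images. Treatment had been applied by pin tool the day after seeding as one drug alone or as a fixed anchor-drug dose with five library-drug doses (not always all listed) in √10 steps. Relative viability is the nuclei count of treated wells divided by that of vehicle wells, and values are medians of duplicate plates.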

NCI-H1395 = tested on: NCI-H1395
Method in brief: as §1

LCLC-103H = tested on: LCLC-103H
Method in brief: as §1

HCC-15 = tested on: HCC-15
Method in brief: as §1

NCI-H1648 = tested on: NCI-H1648
Method in brief: as §1

UMC-11 = tested on: UMC-11
Method in brief: as §1

HCC-44 = tested on: HCC-44
Method in brief: as §1

EKVX = tested on: EKVX
Method in brief: as §1

A549 = tested on: A549
Method in brief: as §1

With `COc1cc2nccc(Oc3ccc(NC(=O)Nc4cc(C)on4)c(Cl)c3)c2cc1OC` [Tivozanib] + CC(=O)c1c(C)c2cnc(Nc3ccc(N4CCNCC4)cn3)nc2n(C2CCCC2)c1=O [Palbociclib] (partner 0.5 µM) as the molecule, how does the relative viability (NCI-H1755; first compound 0.005 µM) read?
The relative viability was 0.437.

And the relative viability (NCI-H1755; first compound 0.01581 µM)?
The relative viability was 0.467.

What about the relative viability (NCI-H1755; first compound 0.05 µM) of the same molecule?
The relative viability was 0.442.

And the relative viability (NCI-H1755; first compound 0.1581 µM)?
Its relative viability is 0.421.

What about the relative viability (NCI-H1755; first compound 0.5 µM) of the same molecule?
The relative viability was 0.403.

What about the relative viability (NCI-H1395; first compound 0.005 µM) of the same molecule?
The relative viability was 0.581.

What about the relative viability (NCI-H1395; first compound 0.01581 µM) of the same molecule?
Its relative viability is 0.587.

And the relative viability (NCI-H1395; first compound 0.05 µM)?
The relative viability was 0.659.

And the relative viability (NCI-H1395; first compound 0.1581 µM)?
Its relative viability is 0.55.

What about the relative viability (NCI-H1395; first compound 0.5 µM) of the same molecule?
Its relative viability is 0.509.

What about the relative viability (LCLC-103H; first compound 0.005 µM) of the same molecule?
The relative viability was 0.452.

What about the relative viability (LCLC-103H; first compound 0.01581 µM) of the same molecule?
Its relative viability is 0.512.

What about the relative viability (LCLC-103H; first compound 0.05 µM) of the same molecule?
The relative viability was 0.519.

What about the relative viability (LCLC-103H; first compound 0.1581 µM) of the same molecule?
The relative viability was 0.551.

And the relative viability (LCLC-103H; first compound 0.5 µM)?
The relative viability was 0.471.

What about the relative viability (HCC-15; first compound 0.005 µM) of the same molecule?
Its relative viability is 0.689.

What about the relative viability (HCC-15; first compound 0.01581 µM) of the same molecule?
Its relative viability is 0.768.

What about the relative viability (HCC-15; first compound 0.05 µM) of the same molecule?
The relative viability was 0.767.

And the relative viability (HCC-15; first compound 0.1581 µM)?
The relative viability was 0.734.

What about the relative viability (HCC-15; first compound 0.5 µM) of the same molecule?
The relative viability was 0.672.

And the relative viability (NCI-H1648; first compound 0.005 µM)?
Its relative viability is 0.31.

And the relative viability (NCI-H1648; first compound 0.01581 µM)?
The relative viability was 0.272.

What about the relative viability (NCI-H1648; first compound 0.05 µM) of the same molecule?
Its relative viability is 0.269.

What about the relative viability (NCI-H1648; first compound 0.1581 µM) of the same molecule?
Its relative viability is 0.244.

What about the relative viability (NCI-H1648; first compound 0.5 µM) of the same molecule?
The relative viability was 0.231.

What about the relative viability (UMC-11; first compound 0.005 µM) of the same molecule?
Its relative viability is 0.288.

And the relative viability (UMC-11; first compound 0.01581 µM)?
Its relative viability is 0.327.

What about the relative viability (UMC-11; first compound 0.05 µM) of the same molecule?
The relative viability was 0.32.

And the relative viability (UMC-11; first compound 0.1581 µM)?
Its relative viability is 0.304.

And the relative viability (UMC-11; first compound 0.5 µM)?
Its relative viability is 0.307.

What about the relative viability (HCC-44; first compound 0.005 µM) of the same molecule?
The relative viability was 0.958.

What about the relative viability (HCC-44; first compound 0.01581 µM) of the same molecule?
Its relative viability is 0.914.

And the relative viability (HCC-44; first compound 0.05 µM)?
The relative viability was 0.989.

What about the relative viability (HCC-44; first compound 0.1581 µM) of the same molecule?
The relative viability was 0.987.

And the relative viability (HCC-44; first compound 0.5 µM)?
Its relative viability is 0.922.

What about the relative viability (EKVX; first compound 0.005 µM) of the same molecule?
The relative viability was 0.37.

What about the relative viability (EKVX; first compound 0.01581 µM) of the same molecule?
Its relative viability is 0.455.

What about the relative viability (EKVX; first compound 0.05 µM) of the same molecule?
Its relative viability is 0.449.

And the relative viability (EKVX; first compound 0.1581 µM)?
The relative viability was 0.291.

And the relative viability (EKVX; first compound 0.5 µM)?
The relative viability was 0.407.

Which relative viability (NCI-H1755; first compound 0.005 µM) does the source give for `COc1cc2nccc(Oc3ccc(NC(=O)Nc4cc(C)on4)c(Cl)c3)c2cc1OC` [Tivozanib] + Nc1nc2[nH]cc(CCc3ccc(C(=O)N[C@@H](CCC(=O)O)C(=O)O)cc3)c2c(=O)[nH]1 [Pemetrexed] (partner 0.2 µM) here?
The relative viability was 0.376.

And the relative viability (NCI-H1755; first compound 0.01581 µM)?
The relative viability was 0.437.

What about the relative viability (NCI-H1755; first compound 0.05 µM) of the same molecule?
Its relative viability is 0.571.

What about the relative viability (NCI-H1755; first compound 0.1581 µM) of the same molecule?
The relative viability was 0.468.

What about the relative viability (NCI-H1755; first compound 0.5 µM) of the same molecule?
The relative viability was 0.361.

What about the relative viability (NCI-H1395; first compound 0.005 µM) of the same molecule?
The relative viability was 0.89.

What about the relative viability (NCI-H1395; first compound 0.01581 µM) of the same molecule?
The relative viability was 1.02.

And the relative viability (NCI-H1395; first compound 0.05 µM)?
The relative viability was 0.938.

And the relative viability (NCI-H1395; first compound 0.1581 µM)?
Its relative viability is 0.775.

And the relative viability (NCI-H1395; first compound 0.5 µM)?
Its relative viability is 0.579.

What about the relative viability (LCLC-103H; first compound 0.005 µM) of the same molecule?
The relative viability was 0.453.

And the relative viability (LCLC-103H; first compound 0.01581 µM)?
Its relative viability is 0.508.

What about the relative viability (LCLC-103H; first compound 0.05 µM) of the same molecule?
The relative viability was 0.49.

What about the relative viability (LCLC-103H; first compound 0.1581 µM) of the same molecule?
Its relative viability is 0.459.

And the relative viability (LCLC-103H; first compound 0.5 µM)?
The relative viability was 0.46.

And the relative viability (HCC-15; first compound 0.005 µM)?
Its relative viability is 0.21.

And the relative viability (HCC-15; first compound 0.01581 µM)?
Its relative viability is 0.224.

What about the relative viability (HCC-15; first compound 0.05 µM) of the same molecule?
The relative viability was 0.235.

And the relative viability (HCC-15; first compound 0.1581 µM)?
The relative viability was 0.226.

What about the relative viability (HCC-15; first compound 0.5 µM) of the same molecule?
The relative viability was 0.238.

What about the relative viability (NCI-H1648; first compound 0.005 µM) of the same molecule?
The relative viability was 0.723.

What about the relative viability (NCI-H1648; first compound 0.01581 µM) of the same molecule?
The relative viability was 0.704.

And the relative viability (NCI-H1648; first compound 0.05 µM)?
The relative viability was 0.778.

What about the relative viability (NCI-H1648; first compound 0.1581 µM) of the same molecule?
Its relative viability is 0.652.

And the relative viability (NCI-H1648; first compound 0.5 µM)?
Its relative viability is 0.546.

What about the relative viability (UMC-11; first compound 0.005 µM) of the same molecule?
The relative viability was 0.807.

And the relative viability (UMC-11; first compound 0.01581 µM)?
Its relative viability is 0.698.

And the relative viability (UMC-11; first compound 0.05 µM)?
Its relative viability is 0.718.

What about the relative viability (UMC-11; first compound 0.1581 µM) of the same molecule?
The relative viability was 0.619.

And the relative viability (UMC-11; first compound 0.5 µM)?
The relative viability was 0.755.

What about the relative viability (HCC-44; first compound 0.005 µM) of the same molecule?
Its relative viability is 0.651.

And the relative viability (HCC-44; first compound 0.01581 µM)?
Its relative viability is 0.62.

And the relative viability (HCC-44; first compound 0.05 µM)?
The relative viability was 0.687.

And the relative viability (HCC-44; first compound 0.1581 µM)?
The relative viability was 0.802.

What about the relative viability (HCC-44; first compound 0.5 µM) of the same molecule?
Its relative viability is 0.627.

What about the relative viability (EKVX; first compound 0.005 µM) of the same molecule?
Its relative viability is 0.377.

And the relative viability (EKVX; first compound 0.01581 µM)?
The relative viability was 0.408.

What about the relative viability (EKVX; first compound 0.05 µM) of the same molecule?
Its relative viability is 0.394.

What about the relative viability (EKVX; first compound 0.1581 µM) of the same molecule?
The relative viability was 0.432.

What about the relative viability (EKVX; first compound 0.5 µM) of the same molecule?
The relative viability was 0.355.

What does the source list for `COc1cc2nccc(Oc3ccc(NC(=O)Nc4cc(C)on4)c(Cl)c3)c2cc1OC` [Tivozanib] + Nc1ncn([C@H]2C[C@H](O)[C@@H](CO)O2)c(=O)n1 [Decitabine] (partner 2 µM)?
relative viability (NCI-H1755; first compound 0.005 µM): 0.716; relative viability (NCI-H1755; first compound 0.01581 µM): 0.74; relative viability (NCI-H1755; first compound 0.05 µM): 0.688; relative viability (NCI-H1755; first compound 0.1581 µM): 0.744; relative viability (NCI-H1755; first compound 0.5 µM): 0.704; relative viability (NCI-H1395; first compound 0.005 µM): 0.671; relative viability (NCI-H1395; first compound 0.01581 µM): 0.672; relative viability (NCI-H1395; first compound 0.05 µM): 0.732; relative viability (NCI-H1395; first compound 0.1581 µM): 0.713; relative viability (NCI-H1395; first compound 0.5 µM): 0.617; relative viability (LCLC-103H; first compound 0.005 µM): 0.615; relative viability (LCLC-103H; first compound 0.01581 µM): 0.708; relative viability (LCLC-103H; first compound 0.05 µM): 0.732; relative viability (LCLC-103H; first compound 0.1581 µM): 0.685; relative viability (LCLC-103H; first compound 0.5 µM): 0.744; relative viability (HCC-15; first compound 0.005 µM): 0.613; relative viability (HCC-15; first compound 0.01581 µM): 0.612; relative viability (HCC-15; first compound 0.05 µM): 0.641; relative viability (HCC-15; first compound 0.1581 µM): 0.727; relative viability (HCC-15; first compound 0.5 µM): 0.639; relative viability (NCI-H1648; first compound 0.005 µM): 0.467; relative viability (NCI-H1648; first compound 0.01581 µM): 0.434; relative viability (NCI-H1648; first compound 0.05 µM): 0.479; relative viability (NCI-H1648; first compound 0.1581 µM): 0.451; relative viability (NCI-H1648; first compound 0.5 µM): 0.496; relative viability (A549; first compound 0.005 µM): 0.207; relative viability (A549; first compound 0.01581 µM): 0.225; relative viability (A549; first compound 0.05 µM): 0.223; relative viability (A549; first compound 0.1581 µM): 0.239; relative viability (A549; first compound 0.5 µM): 0.225; relative viability (UMC-11; first compound 0.005 µM): 0.59; relative viability (UMC-11; first compound 0.01581 µM): 0.595; relative viability (UMC-11; first compound 0.05 µM): 0.657; relative viability (UMC-11; first compound 0.1581 µM): 0.478; relative viability (UMC-11; first compound 0.5 µM): 0.425; relative viability (HCC-44; first compound 0.005 µM): 0.92; relative viability (HCC-44; first compound 0.01581 µM): 0.964; relative viability (HCC-44; first compound 0.05 µM): 0.956; relative viability (HCC-44; first compound 0.1581 µM): 0.982; relative viability (HCC-44; first compound 0.5 µM): 0.937; relative viability (EKVX; first compound 0.005 µM): 0.308; relative viability (EKVX; first compound 0.01581 µM): 0.353; relative viability (EKVX; first compound 0.05 µM): 0.386; relative viability (EKVX; first compound 0.1581 µM): 0.363; relative viability (EKVX; first compound 0.5 µM): 0.313

— the supplement of paper PMC10307832
